Compound	logP
Nc1ccc(I)cc1C(=O)O	2.06
CC(=O)Nc1ccc(O)c(C)c1	0.79
CC(C)(C)CC1=Nc2ccc(Cl)cc2S(=O)(=O)N1	2.71
CSc1nc(C)cc(C)n1	1.86
Cc1nnc(C=NO)s1	0.78
COc1cc(S(=O)(=O)CCC(C)C)cc(OC)c1OC	2.12
CCC(C)c1nnc(N)o1 (stereo not drawn)	0.62
CC1=Nc2cc([N+](=O)[O-])c(Cl)cc2S(=O)(=O)N1	1.42
O=[N+]([O-])c1nccn1CC(O)CO (stereo not drawn)	-0.96
O=C(NN=Cc1ccccc1)c1ccccc1	2.56
CN(/N=N/c1nc[nH]c1C(N)=O)C(C)(C)C	0.94
CCOC(=O)CCCCn1nnc2ccccc21	2.2
Cc1cc(NC(=O)N(C)C)cc(C)c1Br	2.92
NC(=O)N(CCCN(N=O)C(N)=O)N=O	-0.3
CC(C)CNCNC(=O)c1ccccc1	1.73
COc1ccc2c(c1)C(c1ccccc1)=NCC(=O)N2	2.24
CN(C)N=Nc1cccc(C(=O)O)c1	2.03
CCCCOn1c(=O)[nH]c(C)c(Br)c1=O	1.24
CC(C)c1ccc(C(O)C(CO)NC(=O)C(Cl)Cl)cc1 (stereo not drawn)	2.24
CC(=O)NNC(=O)c1ccccc1N=NN(C)C	1.18

Compound	logP
COc1ccc(Cc2cnc(N)nc2N)cc1OCc1ccccc1	2.44
CC(=O)Cn1ccnc1[N+](=O)[O-]	-0.34
O=c1c2ccccc2ncn1O	-0.45
COc1cc(C)n(-c2nc(C)cc(C)n2)n1	1.82
Cc1ccc(NC(=O)CN2CCCCC2)cc1	2.96
CN(Cc1ccccc1)N=Nc1ccc(C(N)=O)cc1	2.76
CC1=Nc2ccc(C(F)(F)F)cc2S(=O)(=O)N1	1.51
CN(Cc1ccc(C#N)cc1)N=Nc1ccc(C(=O)O)cc1	3.6
Cc1cc(-n2[nH]c(C)cc2=O)nc(C)n1	0.89
O=C1NC(=S)SC1=Cc1ccc([N+](=O)[O-])o1	0.74
CNC1=NC(=O)C(=CC=Cc2ccc([N+](=O)[O-])o2)S1	1.35
O=c1[nH]nc(CSc2ccccc2)[nH]1	1.46
O=NN(CCCl)C(=O)NC1CCC(=O)NC1=O (stereo not drawn)	0.37
Cc1cc(C)cc(OC(=O)CNC(=O)c2ccccc2)c1	3.4
CCCCCCCCCCCCCCCCCC[n+]1ccccc1.[I-]	3.68
COCN1C(=O)CN=C(c2ccccc2Cl)c2cc(Cl)ccc21	3.23
CC(C)C(=O)N(C)SN(C)C(=O)Oc1cccc2c1OC(C)(C)C2	3.6
CC(=O)c1ccccc1NC(=O)C(Cl)Cl	2.65
COc1c(OCc2ccccc2)cc(Cc2cnc(N)nc2N)cc1OCc1ccccc1	3.89
CCc1cc(OP(=O)(OC)OC)ccc1[N+](=O)[O-]	2.19

Compound	logP
NS(=O)(=O)c1cc2c(cc1[N+](=O)[O-])NCNS2(=O)=O	0.2
CNC(=N)NC(=N)Nc1ccc(Cl)cc1	1.58
CCC(C)On1c(=O)[nH]c(C)c(Br)c1=O (stereo not drawn)	1.11
CCS(=O)(=O)CCn1ccnc1[N+](=O)[O-]	-0.58
CN1C(=O)CN=C(c2ccccc2F)c2cc(N)ccc21	1.3
CC(C)N(N=O)C(=O)Nc1ccccc1	2.5
CC12CCC(=O)C=C1CCC1C3CCC4(CCC(=O)O4)C3(C)CC3OC312 (stereo not drawn)	1.89
CNC(=O)ON=CC(C)(C)[N+](=O)[O-]	0.36
CN1CCN(C(=O)c2ccccc2)CC1	0.35
O=C(O)C1CCc2ccccc2O1 (stereo not drawn)	1.9
O=[N+]([O-])C=Cc1cccc(Cl)c1	2.57
NS(=O)(=O)NS(=O)(=O)Nc1ccccc1	0.02
COc1cc(Cc2cnc(N)nc2N)cc(OC)c1-n1cccc1	1.78
CSc1nnc(CCC(C)C)c(=O)n1N	1.85
COc1cc(S(=O)(=O)CCN2CCOCC2)cc(OC)c1OC	1.29
CCOC(=O)c1[nH]cnc1N=NN(C)C	0.44
CN(C)c1ccc(N=C2C=CC(=O)C=C2)cc1	2.02
Brc1cccc(Br)c1NC1=NCCN1	1.96

From the OPERA property sets (Mansouri et al. 2018)
